Test results taken from patent US20080004281A1, “METHODS FOR THE MODULATION OF CRP BY THE SELECTIVE MODULATION OF PPAR DELTA” (KALYPSYS, INC., priority 2006, published 2008).

Tested on: plasma CRP
Experiment: Plasma CRP in hyperlipidemic obese rhesus macaques, dose-escalating treatment
Format: in vivo
Method: In the present study, n=6 male obese rhesus macaques were selected for the study and prepared with 4 weeks of diet run-in (week −4 to week 0). At week 0, blood samples were taken in order to determine baseline plasma levels of CRP were measured prior to beginning dosage with Compound 1 as tosylate salt. Dosage began on the same day at 6 mg/kg/day in divided doses, given with food, and continued for four weeks. Dose was subsequently escalated at 4-week intervals to 12 mg/kg/d, 24 mg/kg/d, and finally 48 mg/kg/day. Plasma samples were taken at the close of each 4-week regimen, and a final sample was taken after 4 weeks of washout following discontinuation of dosing.
Quantitative measurements of plasma CRP in each sample taken were made by LabCorp, Inc. (Laboratory Corporation of America) by a multi-calibrator based high sensitivity wide ranged method using a immunoturbidometric assay. The limit of quantitation for the assay was 0.05 mg/dL and the highest point on the calibrator was 32 mg/dL. Mean values as percent change from baseline, and standard deviation as percent change from baseline, were calculated across the group and are shown in Table 2. Mean values for weeks 8-16 fell below the limit of quantiatation, and no data could therefore be reported for the standard deviation.

Question: Which “plasma CRP change” value (over 16 weeks of dose-escalating treatment, hyperlipidemic rhesus macaques) does the source give for `C[C@@H]1CN(c2ccc(OC(F)(F)F)cc2)C[C@H](C)N1S(=O)(=O)c1cccc2c1CC(C(=O)O)C2` (stereo partly drawn) [Compound 1, 4-[cis-2,6-Dimethyl-4-(4-trifluoromethoxy-phenyl)-piperazine-1-sulfonyl]-indan-2-carboxylic acid] here?
Answer: significantly reduced

Question: And the “CRP levels during the washout period” value (washout period after 16 weeks of dosing)?
Answer: reverted back to the pre-treatment levels

Question: And the Mean Plasma CRP (week 4, 6 mg/kg per day in divided doses with food, as tosylate salt, n=6 male obese rhesus macaques, baseline week 0 = 0.233)?
Answer: 0.166 mg/dL

Question: And the Mean Plasma CRP (week 8, 12 mg/kg per day, as tosylate salt, LOQ 0.05)?
Answer: < 0.05 mg/dL

Question: And the Mean Plasma CRP (week 12, 24 mg/kg per day, as tosylate salt, LOQ 0.05)?
Answer: < 0.05 mg/dL

Question: And the Mean Plasma CRP (week 16, 48 mg/kg per day, as tosylate salt, LOQ 0.05)?
Answer: < 0.05 mg/dL

Question: And the Mean Plasma CRP (week 20, after 4 weeks of washout following discontinuation of dosing (dose 0))?
Answer: 0.183 mg/dL
